The conditions of data set [1]: thiol pKa; thioredoxin: active site Cys32; cited from earlier work.
Data set [2] deals with T1, human insulin (Homo sapiens, UniProt P01308).
T1 construct: The two chains of human insulin have a total of six Cys residues which form three disulfide bonds in its mature structure
Description: RP-HPLC insulin reduction assay (conversion of insulin heterodimer). Format: biochemical. On the procedure:
Functional assays 1. Reduction state of ORP100S was quantified using DTNB which reacts with free SH groups resulting in a yellow color change at 412 nm. Fifty microliters of 2.5 mM rhTrx was added to a 96-well plate, followed by 175 microliters of sample buffer and 25 microliters of 6 mM DTNB. After reactions were initiated by the addition of DTNB, change in kinetic absorbance at 412 nm due to DTNB reduction was monitored spectrophotometrically at 30° C. ORP100S concentration was determined by A280 (Nanodrop) using the extinction coefficient of human Trx-1 (7,000). The actual concentrations of free sulfhydryl groups were calculated based on the absorbance at 412 nm and the extinction coefficient of DTNB (14,150) in order to determine the reduction state as percentage of free sulfhydryl. […] 2. Percent of free monomer ORP100S in solution was determined using SEC. Samples were analyzed on a BioBasic S-300 250×4.6 column (Thermo Scientific) run on an Agilent 1100 HPLC system. […] The flow rate was 0.35 mL/min and absorbance was monitored at 280 nm. […] The ORP100S monomer percentage was determined by integration of the area under the peak of the monomeric fraction divided by the total area under the curve of the chromatogram. […] Disulfide bond reduction activity of ORP100S was quantified by assaying the reduction state of a small protein (human insulin) which in its heterodimeric form contains two intermolecular and one intramolecular disulfide, all three of which are known to be suitable thioredoxin substrates. Insulin reduction has classically been used to quantify thioredoxin activity by absorbance change following addition of NADPH and TrxR (Holmgren A., 1979, Thioredoxin catalyzes the reduction of insulin disulfides by dithiothreitol and dihydrolipoamide, J Biol Chem 254:9627-32). […] Relative activity at each time point was determined from changes in the area under the insulin heterodimer peak following separation over RP-HPLC (Agilent 1100) using an Intrada WP-RP 50×3 (Imtakt) column. […] The flow rate was 0.2 mL/min and absorbance was measured at 280 nm. […]

Data set [3] has as its system primary HBE cells from healthy non-CF donors. Description: μOCT of MCT rate and CBF in non-CF primary HBE cells. Format: cell-based, human. The following applies: 3 hrs post-treatment; ORP100S 1-3 mM, DTT 1.6 mM; PBS 0.05±0.007; mean±SE. The source says: (§1) Primary human bronchial epithelial (HBE) cells were derived from lung explants from healthy failed donors and CF patients homozygous for F508del CFTR. […]
(§2) One-micron resolution spectral domain μOCT was used to obtain measurements of mucociliary transport (MCT) rate and ciliary beat frequency (CBF) in HBE monolayers and of MCT rate of sputum ex vivo. This first-in-kind, high-speed (40 frames per second, 512 lines per frame) microscopic reflectance imaging modality enables simultaneous anatomic imaging in cell cultures and intact tissues that readily distinguishes the properties of CF compared to normal epithelia (Liu L, Chu K K, Houser G H, Diephuis B J, Li Y, Wilsterman E J, Shastry S, Dierksen G, Birket S E, Mazur M, et al., 2013, Method for quantitative study of airway functional microanatomy using micro-optical coherence tomography, PLoS One 8(1):e54473; Tuggle K L, Birket S E, Cui X, Hong J, Warren J, Reid L, Chambers A, Ji D, Gamber K, Chu K K, et al., 2014, Characterization of defects in ion transport and tissue development in Cystic Fibrosis Transmembrane Conductance Regulator (CFTR)-knockout rats. […] Images were captured, and MCT rate and CBF calculated, as described in the preceding references.

Data set [4] has as its system mucins of 4% HBE mucus. Kind of data set: mucin molecular weight by GPC-MALLS. Format: biochemical, human. The following applies: 1 mM, 1 hr at 37° C.; from 180 MDa. The source says:
Mucus Preparation: Aseptic mucus was harvested from over 100 individual HBE cultures from 20 different CF donors and prepared to four weight-percent (4%) solids, a concentration that typifies chronic obstructive pulmonary disease (COPD) and mild CF (Hill, D. B. et al., 2014, A biophysical basis for mucus solids concentration as a candidate biomarker for airways disease, PloS one 9, e87681; Anderson, W. H. et al., 2015, The relationship of mucus concentration (hydration) to mucus osmotic pressure and transport in chronic bronchitis., Am J Resp Crit Care Med 192: 182-90). […] Creep recovery experiments were performed in which a known stress (between 0.05 and ˜100 Pa) was applied to treated or control mucus for 10 seconds, and the rheological recovery of the fluid was recorded for an additional 50 seconds. […] From the measured parameters the viscosity and elasticity of the fluid were determined as a function of applied stress. […] Mucin molecular weight determination: Molecular weight reduction following test article treatment was determined using a combination of gel-permeation chromatography with multi-angle laser light scattering on a Wyatt Heleos MALLS system. […] Mucin MW was determined by fitting a Berry model to light scattering from 11 different angles using Wyatt Astra software. […]

For data set [5], the system named is primary HBE cells from CF donors homozygous for F508del. Kind of data set: μOCT of MCT rate and CBF in CF primary HBE cells. Format: cell-based, human. The following applies: 3 hrs post-treatment; ORP100S 1-3 mM, DTT 1.6 mM; PBS 7.30±2.9; mean±SE.
Text: as §1, §2

Data set [6] relates to CF patient sputum on wild type rat trachea. Kind of data set: CF sputum transport ex vivo on excised rat trachea (μOCT). The following applies: sputum treated 2 hrs; ORP100S 3 mM, DTT 1.6 mM, DNase 10 or 25 μg/ml; PBS 0.97±0.17. Set-up: species or system human sputum. On the procedure:
To determine the effect of ORP100S on CF sputum transportability, sputum specimens spontaneously expectorated from 4 CF patients hospitalized for pulmonary exacerbation were collected and stored at 4° C. before being divided into 200 μL aliquots and treated with ORP100S (3 mM), PBS, DTT (1.6 mM), or DNase (10 or 25 μg/ml) on the day of or day following collection. Upon treatment, sputum aliquots were placed in a 37° C. water bath for 2 hrs and then applied (3 μl per sample) for μOCT imaging to the distal end of trachea excised from adult non-CF rats. Trachea were washed 2× with 500 μl of PBS before sputum addition. […]
One-micron resolution spectral domain μOCT was used to obtain measurements of mucociliary transport (MCT) rate and ciliary beat frequency (CBF) in HBE monolayers and of MCT rate of sputum ex vivo. […] Images were captured, and MCT rate and CBF calculated, as described in the preceding references.
The effect of ORP100S on mucus clearance using intact rat trachea, which include the complexities of the airway surface such as gland expression of a fully differentiated mucosal surface, was further evaluated. […] MCT was measured by projecting a cross-sectional line through the mucus through time, with the slope of the particle trajectories indicating velocity. […]

By pKa is commonly meant the negative logarithm of the acid dissociation constant.

“And” between values parts separate entries of the source, which are not always exact repeats. Equal entries are not always repeated.

T1 sequence (P01308 25-54 limits assumed): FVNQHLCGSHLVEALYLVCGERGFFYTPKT
T1 sequence (P01308 90-110 limits assumed): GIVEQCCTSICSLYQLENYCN

Regarding `NCCS` [cysteamine], the pKa in data set [1] is 8.3 and 8.5.

In the case of `N[C@@H](CCC(=O)N[C@@H](CS)C(=O)NCC(=O)O)C(=O)O` [GSH, glutathione], the pKa in data set [1] is listed as 9.1.

Turning to `O=S(=O)(O)CCS` [Mesna, 2-mercaptoethane sulfonate Na], the pKa in data set [1] was 9.2.

`CC(=O)N[C@@H](CS)C(=O)O` [NAC, N-acetyl cysteine, reference compound]: the insulin reduction entry in data set [2] (1.25 mM, pH 6 or 8, 60 min) was “inactive”; in data set [2] (12.5 mM, pH 6, 60 min), “not at pH 6”; in data set [2] (12.5 mM, pH 8, 60 min) it was “able to reduce insulin”.

Turning to `O[C@H](CS)[C@H](O)CS` (racemic) [DTT, dithiothreitol, reference compound], the MCT rate in data set [3] was determined as 1.41±0.1 mm/min; in data set [5], 33.33±12.9 mm/min. Further, the “molecular weight of mucins” value in data set [4] is given as 210 MDa. Moreover, the “MCT rate of treated sputum” value in data set [6] is listed as 2.31±0.34 mm/min.
